Data published in patent US4379150A, “Dibenz[b,f][1,4]oxazepine derivatives, process for preparing the same, and pharmaceutical compositions comprising the same” (Chugai Seiyaku Kabushiki Kaisha, priority 1980, dated 1983).
Counter-ions that a name gives are not always drawn.

Tested on: isolated, donor-perfused rat hearts
Assay: inhibition of coronary vasoconstriction induced by acetylcholine 0.3 μg in isolated, donor-perfused rat hearts
Conditions: 30 μg, administered in the artery
Method: The effect of the compounds of the present invention to inhibit coronary vasoconstriction was studied. That vasoconstriction was induced by acetylcholine 0.3 μg in isolated, donor-perfused rat hearts (K. Sakai, Brit. J. Pharmacol., 68, 625-638, 1980), and determined by measuring the arterial perfusion pressure with a pressure transducer (Nihon Kohden MPU--0.5). The compounds of the present invention were administered in the artery in an amount between 30 and 60 μg.

| Compound | inhibition at 0.03 mg [%] |
| --- | --- |
| COc1ccc2c(c1)N(CCCN(C)C)C(=O)c1cc(C(C)C)cc(C(C)C)c1O2 [Comp. of Ex. 5] | 20 to 30 |
| CC(C)c1cc2c(c(C(C)C)c1)Oc1ccccc1N(CCCN(C)C)C2=O [Comp. of Ex. 3] | ≥ 41 |
| CCOC(=O)c1ccc2c(c1)N(CCCN(C)C)C(=O)c1cc(C(C)(C)CC)ccc1O2 [Comp. of Ex. 9] | ≥ 41 |
| CCOC(=O)c1ccc2c(c1)N(CCCN(C)C)C(=O)c1cc(C(C)C)cc(C(C)C)c1O2 [Comp. of Ex. 14] | 31 to 40 |
| CCOC(=O)c1ccc2c(c1)N(CCN(C)C)C(=O)c1cc(C(C)C)cc(C(C)C)c1O2 [Comp. of Ex. 1, 2,4-diisopropyl-10[2-(dimethylamino)ethyl]-8-ethoxycarbonyl-dibenz[b,f][1,4] oxazepine-11(10H)-one] | ≥ 41 |
| CCC(C)(C)c1ccc2c(c1)C(=O)N(CCCN(C)C)c1ccccc1O2 [Comp. of Ex. 10] | 20 to 30 |
| CC(C)c1cc2c(c(C(C)C)c1)Oc1ccc(C(N)=O)cc1N(CCN(C)C)C2=O [Comp. of Ex. 17, 2,4-diisopropyl-10-[2-(dimethylamino)ethyl]-8-carbamoyl-dibenz[b,f][1,4]oxazepine-11(10H)-one] | 20 to 30 |
| CC(C)c1cc2c(c(C(C)C)c1)Oc1ccc(C(=O)O)cc1N(CCN(C)C)C2=O [Comp. of Ex. 15, 2,4-diisopropyl-10-[2-(dimethylamino)ethyl]-8-carboxy-dibenz[b,f][1,4]-oxazepine-11(10H)-one hydrochloride] | 20 to 30 |
| CCOC(=O)c1ccc2c(c1)N(CCN(C)C)C(=O)c1cc(C(C)(C)CC)ccc1O2 [Comp. of Ex. 8] | 31 to 40 |
| CC(C)c1cc2c(c(C(C)C)c1)Oc1ccccc1N(CCN(C)C)C2=O [Comp. of Ex. 2] | 31 to 40 |

Same assay, conditions: 60 μg, administered in the artery

| Compound | inhibition at 0.06 mg [%] |
| --- | --- |
| COc1ccc2c(c1)N(CCN(C)C)C(=O)c1cc(C(C)C)cc(C(C)C)c1O2 [Comp. of Ex. 4] | 20 to 30 |
